Legend:
B16F10 melanoma = B16F10 melanoma tumors implanted in C57BL/6J mice, intraperitoneal treatment; tumor area and volume; type: in vivo; conditions: diluted in Miglyol 810, intraperitoneal 1.15 μg/kg daily, to Day 14; tumor volume and area
Description: After the Day 4 of tumor cells implant (2×10^5 tumoral cells/mL), the animals were splitted in two groups: the test group, treated with HB-1 compound diluted in Miglyol 810® and the control group, which received only the diluent (Miglyol 810®) in the same volume as the test group. The animals were daily treated by intraperitoneal route. Concomitantly, measurements of animal weight and tumor size (two measures—length×width) were performed and tumor aspect registered by photographies.
After the Day 14, the animals were sacrificed by cervical displacement, tumors were removed, and necropsy performed to remove all internal organs and macroscopic lesions for hystopathologic analysis.
Tumoral parameters were obtained by calculation of tumor average area (A) and volume (V), through the following formulas A=πR^2 and V=4/3πR^3, where (R=average tumor radius). […]
After tumoral cell implant, the animals were treated with the HB-2 compound diluted in Miglyol 810® and with (HB2+HB-1) conjugate whereas the control group received the same volume of diluent and by the same administration route (intraperitoneal—100 μl). Daily, the animals received the compounds (100 μl) and the control group received Miglyol 810®, the animals were weighted, and the tumors were measured (length×width) and photographed. […]

[1] = test system: Leishmania (L) amazonensis promastigote forms (isolate LV79); assay: Promastigote proliferation in RPMI medium, Neubauer chamber count; type: cell-based
Description: Compounds are solubilized with dimethyl sulfoxide (DMSO) to produce a stock solution from which samples with different concentrations are obtained, by adding the culture medium in sufficient volume as required to attain the first desired concentration with the other concentrations being obtained by serial dilution of this first one, at ratio 2. The cultures are incubated at 22° C. or 34° C. for promastigotes and amastigotes, respectively.
As a positive control for parasite viability evaluation, only culture medium and parasite, without any other addition, were used. As toxicity control for the solvent present in compound composition, parasite forms were incubated with DMSO diluted in culture medium.
To quantify the promastigotes, Neubauer chambers are used and the cultures are quantified every 24 hours throughout the incubation period scheduled for each experiment. The samples are prepared from an initial dilution of 20 μL of the culture into 180 μL of the saline solution formulated (PBS+2% formaldehyde) to obtain a 1/10 dilution. Whenever necessary, serial dilutions may be performed from the first dilution. For all experiments, parasite forms should be incubated with several HB-1 concentrations, its respective controls with DMSO (we should have in mind that the initial HB-1 stock solution was prepared with DMSO and that its toxicity in relation to the parasite forms have to be assessed) and the normal culture, without any component additioned to the medium. Countings are performed as duplicates, by two different people and the final result is expressed as the arithmetic average from the two countings. The same procedure is employed to quantify the amastigote forms.
Leishmania (L) amazonensis promastigote forms (isolade LV79, 1st passage in culture medium, day 7 of culture, stationary phase) are incubated at a proportion of 10^6 promastigotes/mL of RPMI medium, 3.0 mL final volume, in the presence of different concentrations of HB-1 and of the respective controls in DMSO. The effect of HB-1 compound on the proliferation of Leishmania (L) amazonensis promastigotes-RPMI medium is shown in the next Table and in FIG. 34.

COc1cc(C=CC(=O)C=Cc2ccc(O)c(OC)c2)ccc1O [HB-1, 1,5-Bis-(4-hydroxy-3-methoxy-phenyl)-penta-1,4-dien-3-one]
percentage of inhibitory treatment for B16F10 melanoma (B16F10 melanoma): higher than 98%
N^o. of promastigotes/mL (×10^6) ([1]; HB-1 3.12 μg/mL, 24 hours): 1.6 ×10^6 promastigotes/mL
N^o. of promastigotes/mL (×10^6) ([1]; HB-1 3.12 μg/mL, 48 hours): 2.1 ×10^6 promastigotes/mL
N^o. of promastigotes/mL (×10^6) ([1]; HB-1 3.12 μg/mL, 72 hours): 2.1 ×10^6 promastigotes/mL
N^o. of promastigotes/mL (×10^6) ([1]; HB-1 3.12 μg/mL, 144 hours): 2.4 ×10^6 promastigotes/mL
N^o. of promastigotes/mL (×10^6) ([1]; HB-1 6.25 μg/mL, 24 hours): 0.8 ×10^6 promastigotes/mL
N^o. of promastigotes/mL (×10^6) ([1]; HB-1 6.25 μg/mL, 48 hours): 1.0 ×10^6 promastigotes/mL
N^o. of promastigotes/mL (×10^6) ([1]; HB-1 6.25 μg/mL, 72 hours): 0.7 ×10^6 promastigotes/mL
N^o. of promastigotes/mL (×10^6) ([1]; HB-1 6.25 μg/mL, 144 hours): 0.3 ×10^6 promastigotes/mL
N^o. of promastigotes/mL (×10^6) ([1]; HB-1 12.5 μg/mL, 24 hours): 0.7 ×10^6 promastigotes/mL
N^o. of promastigotes/mL (×10^6) ([1]; HB-1 12.5 μg/mL, 48 hours): 0 ×10^6 promastigotes/mL
N^o. of promastigotes/mL (×10^6) ([1]; HB-1 12.5 μg/mL, 72 hours): 0 ×10^6 promastigotes/mL
N^o. of promastigotes/mL (×10^6) ([1]; HB-1 12.5 μg/mL, 144 hours): 0 ×10^6 promastigotes/mL
N^o. of promastigotes/mL (×10^6) ([1]; HB-1 25 μg/mL, 24 hours): 0.5 ×10^6 promastigotes/mL
N^o. of promastigotes/mL (×10^6) ([1]; HB-1 25 μg/mL, 48 hours): 0 ×10^6 promastigotes/mL
N^o. of promastigotes/mL (×10^6) ([1]; HB-1 25 μg/mL, 72 hours): 0 ×10^6 promastigotes/mL
N^o. of promastigotes/mL (×10^6) ([1]; HB-1 25 μg/mL, 144 hours): 0 ×10^6 promastigotes/mL
N^o. of promastigotes/mL (×10^6) ([1]; HB-1 50 μg/mL, 24 hours): 0.1 ×10^6 promastigotes/mL
N^o. of promastigotes/mL (×10^6) ([1]; HB-1 50 μg/mL, 48 hours): 0 ×10^6 promastigotes/mL
N^o. of promastigotes/mL (×10^6) ([1]; HB-1 50 μg/mL, 72 hours): 0 ×10^6 promastigotes/mL
N^o. of promastigotes/mL (×10^6) ([1]; HB-1 50 μg/mL, 144 hours): 0 ×10^6 promastigotes/mL
inhibitory effect (=mortality) ([1]; HB-1 100 μg/mL to 12.5 μg/mL, 48 hours): 100%
N^o. of promastigotes/mL (×10^6) ([1]; HB-1 100 μg/mL, 24 hours): 0 ×10^6 promastigotes/mL
N^o. of promastigotes/mL (×10^6) ([1]; HB-1 100 μg/mL, 48 hours): 0 ×10^6 promastigotes/mL
N^o. of promastigotes/mL (×10^6) ([1]; HB-1 100 μg/mL, 72 hours): 0 ×10^6 promastigotes/mL
N^o. of promastigotes/mL (×10^6) ([1]; HB-1 100 μg/mL, 144 hours): 0 ×10^6 promastigotes/mL

Source: patent publication US8859625B2, “Methods to prepare penta-1,4-dien-3-ones and substituted cyclohexanones and derivatives with antitumoral and antiparasitic properties, the compounds and their uses” (Universidade Bandeirante de Sao Paulo-Academia, Paulista …, priority 2006, dated 2014)
